Results on one compound are retold here after paper PMC7311950, “Potent Tetrahydroquinolone Eliminates Apicomplexan Parasites” (Frontiers in Cellular and Infection Microbiology, 2020).

pIC50: −log10 of the molar value.

In assay [1] the test system is Human Foreskin Fibroblast (HFF). The assay is described as follows: Cytotoxicity assay, WST-1 cell proliferation reagent on HFF. In kind it is cell-based. As to conditions: Homo sapiens, Fibroblast; supplement summary. As to the method: Toxicity assays used WST-1 cell proliferation reagent (Roche) as in Fomovska et al. ([2012a]). HFF were grown on a flat, clear-bottomed, black 96-well plate. Confluent HFF were treated with inhibitory compounds at concentrations of 10 and 50 μM. Compounds were diluted in IMDM-C, and 20 μL were added to each designated well, with triplicates for each condition. A gradient with 2-folddecreasing concentrations of DMSO from 10 to 0% in colorless, translucent IMDM-C was used as a control. The plate was incubated for 72 h at 37°C. Ten microlitre WST-1 reagent (Roche) were added to each well. Cells were incubated for 30–60 min. Absorbance was read using a fluorimeter at 420 nm. A higher degree of color change (and absorbance) indicated mitochondrial activity and cell viability.

The test system of assay [2] is T. gondii (Prugneaud strain expressing luciferase) tachyzoites. The assay is described as follows: Type II Prugneaud luciferase tachyzoite infection of Balb/C mice, IVIS and brain cysts. In kind it is in vivo, Toxoplasma gondii. The method, then:
Balb/C mice were infected intraperitoneally (IP) with 20 × 10^3 T. gondii (Prugneaud strain expressing luciferase) tachyzoites. Treatment began 2 h later with JAG21 (5 mg/kg) which was dissolved in DMSO, administered IP in a total volume of 0.05 mL. Mice were imaged every second day starting on day 4 post infection using an IVIS Spectrum (Caliper Life Sciences) for […], with medium binning, 20 min post injection with 150 mg/kg of D-luciferin potassium salt solution.
Brain cysts were searched for in paraffin imbedded tissue of the surviving Prugneaud strain infected treated Balb/C mice in the IVIS study, 30 days after infection which was 16 days after treatment had been discontinued. All treated mice had survived. There were no surviving untreated mice in those experiments.

Another assay relates to T. gondii RH tachyzoites. The assay can be described thus: RH YFP challenge, oral nanoformulation of JAG21. In kind it is in vivo, Toxoplasma gondii. As to conditions: for parasite burden reduced: peritoneal fluid 5 days later. As to the method: JAG21 was prepared using hydroxyethyl cellulose (HEC) and Tween 80. Briefly, this dispersant solution containing 5 mg/mL HEC and 2 mg/mL Tween 80 in water was prepared. Solid JAG21 was added to 20 mg/mL, and the dispersion was sonicated for 60 s using a Sonics vc50 probe-tip sonicator set to 20 kHz to homogenize. Sonication was performed at room temperature. Aliquots of the homogeneous dispersion were frozen and lyophilized using a VirTis AdVantage freeze drier. These aliquots were stored at room temperature for 5–6 months. Prior to dosing, aliquots were reconstituted using water. Controls containing no JAG21 were also prepared. Following reconstitution with water, the dispersion was imaged using a Nikon ECLIPSE E200 optical microscope set to 40x magnification. The average particle size of the JAG21 dispersion in HEC/Tween 80 was determined using an in-house image analysis program. This novel method to stably formulate JAG21 was discovered after all other studies were completed and this was the last experiment in this manuscript performed as a consequence.
For studies of the nano formulated JAG 21, this was administered for 1 or 3 days by gavage in the doses shown in the results section. These C57BL6 background mice received 2000 RH tachyzoites IP. on day the first day of the experiment and peritoneal fluid was collected 5 days later to quantitate fluorescence and numbers of parasites.

For the next assay, the system named is P. berghei sporozoites. The assay is described as follows: P. berghei causal prophylaxis in vivo model. As to conditions: oral nanoformulation, single dose 2.5 mg/kg day 0 or 3 doses 0.625 mg/kg days −1, 0, +1; C57BL/6 albino mice. Further details: species or system Plasmodium berghei. The text has this: P. berghei sporozoites were obtained from laboratory-reared female Anopheles stephensi mosquitoes which were maintained at 18 degrees C for 17–22 days after feeding on a luciferase expressing P. berghei infected Swiss CD1ICR. Using a dissecting microscope, the salivary glands were extracted from malaria-infected mosquitoes and sporozoites were obtained. Briefly, mosquitoes were separated into head/thorax and abdomen. Thoraxes and heads were triturated with a mortar and pestle and suspended in medium RPMI 1640 containing 1% C57BL/6 mouse serum (Rockland Co, Gilbertsville, PA, USA). […] They were stained with a vital dye containing fluorescein diacetate (50 mg/mL in acetone) and ethidium bromide (20 μg/mL in phosphate buffered saline; Sigma Chemical Co, St. Louis, MO, USA) and counted in a hemocytometer to ensure that inoculated sporozoites were viable following the isolation procedure. […]
Animals were dosed with experimental compounds based on body weight. […] To insure the size of the compounds in the dosing solution were under […], the suspension was homogenized using a homogenizer (PRO Scientific Inc, Monroe, CT, USA) with a 10 mm open-slotted generator running at 20,000–22,000 rpm for 5 min in an ice bath. […] Stability beyond that time was not determined. […]

For `Cc1[nH]c2c(c(=O)c1-c1ccc(Oc3ccc(OC(F)(F)F)cc3)cc1)CCCC2` [JAG21, 2-Methyl-3-(4-(4-(Trifluoromethoxy)Phenoxy)Phenyl)-5,6,7,8-Tetrahydroquinolin-4-One], the pIC50 in assay [1] was under 5.12. The “luciferase expressing parasites by IVIS” value in assay [2] (5 mg/kg/day IP) is “eliminates leuciferase expressing parasites”. Moreover, in assay [2] (5 mg/kg/day IP for 14 days), the “survival of infected mice” value is 100%. In addition, the cysts in brains result in assay [2] (treated first 14 days with 5 mg/kg/day IP, 5 mg/kg/day) is on record as “No cysts were found”. Moreover, the parasite burden reduced with T. gondii RH tachyzoites (single dose 10 mg/kg) and with T. gondii RH tachyzoites (single dose 20 mg/kg) was ~ 60% throughout. Besides, the parasite burden result in the assay on T. gondii RH tachyzoites (three doses of 10 mg/kg on first 3 days, fifth day) is given as “markedly reduced”. For the same compound, the “survival 30 days post infection” value with P. berghei sporozoites came to 100%.

By pIC50 is commonly meant −log10 of the IC50, conventionally taken in molar units. Read a high pIC50 as a low IC50.
